ChEMBL document CHEMBL3045406, “Enantioselective Relieving Activity of α-Methylbenzylphenylureas toward Bensulfuron-methyl Injury to Rice (Oryza sativa)” (Biosci Biotechnol Biochem, 1999)

Assays:
Oryza sativa [1] = assay: Effect on Oryza sativa (rice) assessed as growth rate at 10 uM relative to control; type: organism-based; conditions: in vivo
Oryza sativa [2] = assay: Relieving activity against bensulfuron-methyl induced injury to Oryza sativa (rice) assessed as growth rate at 10 uM (Rbv = 46 to 53%); type: functional
Oryza sativa [3] = assay: Safener indices, ratio of compound effect of Oryza sativa (rice) growth rate to relieving activity against bensulfuron-methyl induced injury to Oryza sativa growth rate at 10 uM
Oryza sativa [4] = assay: Relieving activity against bensulfuron-methyl induced injury to Oryza sativa (rice) assessed as growth rate at 0.1 uM (Rbv = 46 to 53%); type: functional
Oryza sativa [5] = assay: Effect on Oryza sativa (rice) assessed as growth rate at 0.1 uM relative to control; type: organism-based; conditions: in vivo
Oryza sativa [6] = assay: Effect on Oryza sativa (rice) assessed as growth rate at 1 uM relative to control; type: organism-based; conditions: in vivo
Oryza sativa [7] = assay: Safener indices, ratio of compound effect of Oryza sativa (rice) growth rate to relieving activity against bensulfuron-methyl induced injury to Oryza sativa growth rate at 1 uM
Oryza sativa [8] = assay: Safener indices, ratio of compound effect of Oryza sativa (rice) growth rate to relieving activity against bensulfuron-methyl induced injury to Oryza sativa growth rate at 0.1 uM
[9] = Hydrophobicity, log K of the compound; type: physicochemical; conditions: octanol/water
Oryza sativa [10] = assay: Relieving activity against bensulfuron-methyl induced injury to Oryza sativa (rice) assessed as growth rate at 1 uM (Rbv = 46 to 53%); type: functional

Activity (Oryza sativa [1]) [%] | Activity (Oryza sativa [5]) [%] | Activity (Oryza sativa [6]) [%] | log K [9] | Compound | Activity (Oryza sativa [2]) [%] | Ratio (Oryza sativa [3]) | Activity (Oryza sativa [4]) [%] | Ratio (Oryza sativa [7]) | Ratio (Oryza sativa [8]) | Activity (Oryza sativa [10]) [%]
90 | 101 | 98 | 0.28 | C[C@H](NC(=O)Nc1ccccc1)c1ccccc1 | 80 | 63 | 67 | 58 | 30 | 80
79 | 101 | 98 | 0.28 | C[C@@H](NC(=O)Nc1ccccc1)c1ccccc1 | 77 | 60 | 56 | 36 | 7 | 69
99 | 100 | 100 | 0.337 | Cc1ccccc1NC(=O)N[C@H](C)c1ccccc1 | 71 | 42 | 52 | 12 | 6 | 55

Compound | Activity (Oryza sativa [1]) [%] | Activity (Oryza sativa [5]) [%] | Activity (Oryza sativa [6]) [%] | log K [9] | Activity (Oryza sativa [2]) [%] | Ratio (Oryza sativa [3]) | Activity (Oryza sativa [4]) [%] | Ratio (Oryza sativa [7]) | Ratio (Oryza sativa [8]) | Activity (Oryza sativa [10]) [%]
Cc1ccc(NC(=O)NC(C)(C)c2ccccc2)cc1 [DAIMURON] | 77 | 99 | 89 | 0.487 | 79 | 66 | 74 | 78 | 47 | 88
